Reference: patent publication US20100319073A1, “GDE Compositions and Methods” (The Johns Hopkins University, priority 2005, published 2010)

System: clone 45.1 (GDE2)
Experiment: Reverse Northern blot of ventral spinal cord explants grown with or without retinol (differential subtraction screen)
Type: cell-based, chick
Conditions: explants exposed to retinol, compared with GAPDH
Experimental: Ventral neural explants were dissected from brachial level HH St17 chick embryos and cultured as described previously for 18 hours (1). The screen was designed to maximize isolation of genes responsive to motor neuron-derived retinoids however genes responsive to paraxial mesoderm-derived retinoids would also have been included. RNA from 100 explants was isolated using Trizol (GIBCO-BRL). cDNAs were generated and amplified using the Marathon cDNA PCR Amplification kit (Stratagene) and the subtraction procedure carried out using the Stratagene PCR Select Suppression kit. Reverse Northern blot analysis was performed as described in the latter kit.
Spinal motor neuron generation in the chick requires the integration of three different extrinsic signals: sonic hedgehog, fibroblast growth factors, and retinoic acid (RA) (2, 3). All three signaling pathways have been implicated in initial dorsal-ventral patterning of progenitor domains in the spinal cord (FIG. 1A). However, RA signaling is also necessary for the induction of Oligodendrocyte transcription factor 2 (Olig2) in progenitors, and their subsequent differentiation into postmitotic motor neurons (FIG. 1A) (2). […]

For `CC1=C(/C=C/C(C)=C/C=C/C(C)=C/CO)C(C)(C)CCC1` [retinol], the “increase in expression of clone 45.1” value was “approximately 50 fold”.
